Read-outs that look alike come from different tables or passages of the source.
Tests used:
PN73 = PN73 (Homo sapiens, UniProt P62807); experiment: SEC-UV/LS: effect of organic salt on PN73 aggregation; format: physicochemical; settings: 100 mM salt, without LC20 siRNA
Method: (§1) In this example, size exclusion chromatography (SEC) coupled with an ultraviolet detector (UV 260nm) and static laser light scattering (LS) detector was used to characterize the physical properties of the LC20 siRNA/PN73 peptide complex in the presence or absence of the organic salt. In addition, the phosphate/nitrogen (P/N) charge ratio for LC20 siRNA/PN73 was calculated.
PN73 in monomeric form is 4 kiloDaltons (kDA); however an intrinsic property of this peptide is to aggregate and form large complexes in solution. An initial study was performed to analyze the physical properties of PN73, without LC20 siRNA, in the presence and absence of 100 mM NMDG-glutamate salt or 9% sorbitol (no salt environment). […] In contrast, in the presence of 100 mM NMDG-glutamate salt, two distinct adjacent UV traces were observed indicating two distinct species of PN73 were present. […] Next, the ability of NMDG-glutamate and other organic salts to reduced PN73 aggregation in the presence of LC20 siRNA was characterized by SEC-UV/LS.

LC20 siRNA/PN73 complex = LC20 siRNA/PN73 complex (Homo sapiens, UniProt P62807)
Method: as §1
LC20 siRNA/PN73 aggregation was characterized in the presence or absence of NMDG-glutamate by SEC-UV/LS.

Sequence of LC20 siRNA/PN73 complex (P62807 13-48 limits assumed, one chain of several): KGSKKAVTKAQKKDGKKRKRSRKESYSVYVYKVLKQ
Sequence of PN73 (P62807 13-48): as the sequence (P62807 13-48 limits assumed, one chain of several) above

Molecule	effect on PN73 aggregation (PN73)	stabilization of LC20 siRNA/PN73 complex in solution (LC20 siRNA/PN73 complex; 1 mM salt)	stabilization of LC20 siRNA/PN73 complex in solution (LC20 siRNA/PN73 complex; 10 mM salt)	stabilization of LC20 siRNA/PN73 complex in solution (LC20 siRNA/PN73 complex; 100 mM salt)	stabilization of LC20 siRNA/PN73 complex in solution (LC20 siRNA/PN73 complex; 150 mM salt)
CNC[C@H](O)[C@@H](O)[C@H](O)[C@H](O)CO.N[C@@H](CCC(=O)O)C(=O)O [NMDG-glutamate, N-methyl-D-glucamine (NMDG)]	reduces PN73 aggregation significantly	effective stabilizer	effective stabilizer	effective stabilizer	–
N=C(N)NCCC[C@H](N)C(=O)O [arginine glutamate, arginine]	–	effective stabilizer	effective stabilizer	effective stabilizer	not an effective stabilizer
NCCCNCCCCNCCCN [spermine acetate, spermine]	–	effective LC20 siRNA/PN73 stabilizer	effective LC20 siRNA/PN73 stabilizer	dissociates the LC20 siRNA/PN73 peptide complex	–
trimethylethanolamine (Choline) [choline chloride]	–	may not be suitable as a stabilizer	may not be suitable as a stabilizer	may not be suitable as a stabilizer	–

From patent US20070213257A1, “COMPOSITIONS AND METHODS FOR COMPLEXES OF NUCLEIC ACIDS AND PEPTIDES” (Nastech Pharmaceutical Company Inc., priority 2005, published 2007)
